Experimental data: article PMC9960814, “The SlDOG1 Affect Biosynthesis of Steroidal Glycoalkaloids by Regulating GAME Expression in Tomato” (International Journal of Molecular Sciences, 2023)

What was measured:
SlGAME5-like = test: glycosyltransferase kinetics, […] substrate; type: biochemical, Solanum lycopersicum; conditions: 15 mM UDP-galactose as fixed glycosyl donor
[1] = test system: O=c1c(O)c(-c2ccc(O)c(O)c2)oc2cc(O)cc(O)c12; test: purified protein; type: biochemical, Solanum lycopersicum; conditions: 15 mM UDP-galactose as fixed glycosyl donor

Q: For O=c1c(O)c(-c2ccc(O)c(O)c2)oc2cc(O)cc(O)c12 [quercetin], which Km (SlGAME5-like) is on record?
A: 33 µM

Q: With C[C@H]1CC[C@]2(NC1)O[C@H]1C[C@H]3[C@@H]4CC[C@H]5C[C@@H](O)CC[C@]5(C)[C@H]4CC[C@]3(C)[C@H]1[C@@H]2C [tomatidine] as the compound, how does the Km (SlGAME5-like; methods print the varied substrate as tomatine) read?
A: 40 µM

Q: With SlGAME5 (Solanum lycopersicum) as the compound, how does the Km [1] read?
A: 17.50 µM
